In the Bradley open melting point set (2014):

| melting point | SMILES |
| --- | --- |
| 109 °C | OB(O)c1ccccc1C(F)(F)F [2-(trifluoromethyl)benzeneboronic acid] |
| 46 °C | Oc1ccccc1C(F)(F)F [2-(trifluoromethyl)phenol] |
| 248 °C | Nc1nc2ccc([N+](=O)[O-])cc2s1 [2-Amino-6-nitrobenzothiazole] |
| 295 °C | Nc1ccc2c(c1)C(=O)c1ccccc1C2=O [2-Amino-9,10-anthraquinone] |
| 110 °C | O=C1c2ccccc2C(C2=CCCCC2)N1Cc1ccccc1 (configuration not stated) [2-Benzyl-3-cyclohexenylisoindolin-1-one] |
| -73 °C | CCC(C)(C)Cl [2-Chloro-2-methylbutane] |
| 56.9 °C | Cc1cc(Cl)nc2ccccc12 [2-Chloro-4-methylquinoline] |
| 142 °C | O=C(O)c1ccccc1Cl [2-Chlorobenzoic acid] |
| -76 °C | CCCCC(CC)CO (configuration not stated) [2-Ethylhexan-1-ol] |
| -28 °C | CCc1ccccc1O [2-Ethylphenol] |
| 34.5 °C | CC1CCC(C(C)C)C(O)C1 (configuration not stated) [2-Isopropyl-5-methylcyclohexanol] |
| 108 °C | Cc1ccccc1C(=O)O [2-Methylbenzoic acid] [listing 1 of 2 here] |
| 105 °C | Cc1ccccc1C(=O)O [2-Methylbenzoic acid] [listing 2 of 2 here] |
| -134 °C | CC=C(/C)C [2-Methylbut-2-ene] |
| -65 °C | CC(C)C=O [2-Methylpropanal] |
| 111 °C | CC(CC(=O)O)C(=O)O (configuration not stated) [2-Methylsuccinic acid] |
| 188 °C | COc1ccc(C=CC(=O)c2ccc(O)cc2)cc1 [2-Propen-1-one, 1-(4-hydroxyphenyl)-3-(4-methoxyphenyl)-] |
| 161 °C | O=C(C=Cc1ccc([N+](=O)[O-])cc1)c1ccccc1 [2-Propen-1-one, 3- (4-nitrophenyl)-1-phenyl-] |
| 102 °C | O=[N+]([O-])c1ccccc1C=Cc1ccc2ccccc2n1 [2-[2-(2-Nitro-phenyl)-vinyl]-quinoline] |
| 55 °C | O=[N+]([O-])c1ccccc1C#Cc1ccccn1 [2-[(2-nitrophenyl)ethynyl]pyridine] |
| 61 °C | O=[N+]([O-])c1ccccc1/C=C(/Cl)c1ccccn1 [2-[(E)-1-chloro-2-(2-nitrophenyl)ethenyl]pyridine] |
| 149 °C | CC(=O)Nc1ccc(N)cn1 [2-acetamido-5-aminopyridine] |
| 207 °C | CC(=O)Nc1ccccc1O [2-acetamidophenol] |
| 117 °C | CC(=O)c1ccccc1C(=O)O [2-acetylbenzoic acid] |
| 56 °C | CC(=O)c1ccccc1-c1ccccc1 [2-acetylbiphenyl] |
| 80 °C | NC1=NCCS1 [2-amino-2-thiazoline] |
| 233 °C | Nc1c(Br)cc(Br)cc1C(=O)O [2-amino-3,5-dibromobenzoic acid] |

| melting point | SMILES |
| --- | --- |
| 93 °C | Nc1ncccc1OCc1ccccc1 [2-amino-3-benzyloxypyridine] |
| 100 °C | Nc1ncc(C(F)(F)F)cc1Br [2-amino-3-bromo-5-(trifluoromethyl)pyridine] |
| 143 °C | N#Cc1c(N)sc2c1CCCC2 [2-amino-4,5,6,7-tetrahydrobenzo[b]thiophene-3-carbonitrile] |
| 153 °C | Cc1cc(C)nc(N)n1 [2-amino-4,6-dimethylpyrimidine] |
| 201 °C | COc1nc(N)nc(SC)n1 [2-amino-4-methoxy-6-(methylthio)-1,3,5-triazine] |
| 163 °C | CC(C)(C)c1ccc(O)c(N)c1 [2-amino-4-tert-butylphenol] |
| 208 °C | Nc1ncc(Br)cc1[N+](=O)[O-] [2-amino-5-bromo-3-nitropyridine] |
| 151 °C | Nc1cccc(Cl)c1C(=O)O [2-amino-6-chlorobenzoic acid] |
| 166 °C | Nc1cccc(F)c1C(=O)O [2-amino-6-fluorobenzoic acid] |
| 43 °C | Cc1cccc(N)n1 [2-amino-6-methylpyridine] |
| 237 °C | Nc1ccc2cc3ccccc3cc2c1 [2-aminoanthracene] |
| 112 °C | NC(=O)c1ccccc1N [2-aminobenzamide] |
| 189 °C | Nc1ccccc1B(O)O [2-aminobenzeneboronic acid] |
| 189 °C | NCCOB(c1ccccc1)c1ccccc1 [2-aminoethyl diphenylborinate] |
| -95 °C | CC(C)N [2-aminopropane] |
| 58 °C | Nc1ccccn1 [2-aminopyridine] |
| 19 °C | Nc1ccccc1S [2-aminothiophenol] |
| 101 °C | N#CCc1nc2ccccc2s1 [2-benzothiazoleacetonitrile] |
| 43 °C | O=C(c1ccccc1)c1ccccn1 [2-benzoylpyridine] |
| 119 °C | OB(O)c1cc(F)ccc1OCc1ccccc1 [2-benzyloxy-5-fluorobenzeneboronic acid] |
| 98 °C | OB(O)c1ccccc1OCc1ccccc1 [2-benzyloxybenzeneboronic acid] |
| 31 °C | O=C(CBr)c1c(F)c(F)c(F)c(F)c1F [2-bromo-2',3',4',5',6'-pentafluoroacetophenone] |
| 255 °C | COc1cc(Br)c(/C=C/C(=O)O)cc1OC [2-bromo-4,5-dimethoxycinnamic acid] |
| 30 °C | Nc1ccc(C(F)(F)F)cc1Br [2-bromo-4-(trifluoromethyl)aniline] |
| 60 °C | Cc1cc(C)c([N+](=O)[O-])c(C)c1Br [2-bromo-4-nitro-1,3,5-trimethylbenzene] |
| 55 °C | CCOc1ccc([N+](=O)[O-])cc1Br [2-bromo-4-nitrophenetole] |
| 29 °C | Fc1ccc(Br)nc1 [2-bromo-5-fluoropyridine] |

| melting point | SMILES |
| --- | --- |
| 180 °C | O=C(O)c1cc([N+](=O)[O-])ccc1Br [2-bromo-5-nitrobenzoic acid] |
| 50 °C | FC(F)(F)c1cccc(Br)n1 [2-bromo-6-(trifluoromethyl)pyridine] |
| -111 °C | Br/C(C)=CC [2-bromo-cis-2-butene] |
| 10 °C | Cc1ccc(C)c(Br)c1 [2-bromo-p-xylene] |
| 149 °C | O=C(O)c1ccccc1Br [2-bromobenzoic acid] |
| 2 °C | Cc1cc(C)c(Br)c(C)c1 [2-bromomesitylene] [listing 1 of 2 here] |
| 2 °C | Cc1cc(C)c(Br)c(C)c1 [2-bromomesitylene] [listing 2 of 2 here] |
| 182 °C | O=C(O)c1cnc(Br)s1 [2-bromothiazole-5-carboxylic acid] |
| -27 °C | Cc1ccccc1Br [2-bromotoluene] |
| -2 °C | CC#CCO [2-butyn-1-ol] |
| 99 °C | O=Cc1ccccc1C(=O)O [2-carboxybenzaldehyde] |
| 220 °C | O=C(O)c1ccccc1B(O)O [2-carboxybenzeneboronic acid] |
| -25 °C | CC(C)(C)Cl [2-chloro-2-methylpropane] |
| 114 °C | O=C(CCl)Nc1cccc([N+](=O)[O-])c1 [2-chloro-3'-nitroacetanilide] |
| 102 °C | COc1ccc(C#N)c(Cl)c1OC [2-chloro-3,4-dimethoxybenzonitrile] |
| 101 °C | O=[N+]([O-])c1cccnc1Cl [2-chloro-3-nitropyridine] |
| 45 °C | OCc1ccc(F)cc1Cl [2-chloro-4-fluorobenzyl alcohol] |
| 70 °C | Nc1ccc(I)cc1Cl [2-chloro-4-iodoaniline] |
| 7 °C | Cc1ccc(N)c(Cl)c1 [2-chloro-4-methylaniline] |
| 64 °C | Cc1ccc([N+](=O)[O-])cc1Cl [2-chloro-4-nitrotoluene] [listing 1 of 2 here] |
| 60 °C | Cc1ccc([N+](=O)[O-])cc1Cl [2-chloro-4-nitrotoluene] [listing 2 of 2 here] |
| 31 °C | Cc1ccc(Cl)c(N)c1 [2-chloro-5-methylaniline] |
| 77 °C | O=[N+]([O-])c1ccc(Cl)c(CO)c1 [2-chloro-5-nitrobenzyl alcohol] |
| 119 °C | O=C(O)c1ccc(C(F)(F)F)nc1Cl [2-chloro-6-(trifluoromethyl)nicotinic acid] |
| 98 °C | OB(O)c1ccccc1Cl [2-chlorobenzeneboronic acid] |
| 190 °C | NS(=O)(=O)c1ccccc1Cl [2-chlorobenzenesulfonamide] |

| SMILES | melting point |
| --- | --- |
| FC(F)(F)c1ccccc1CBr [2-(trifluoromethyl)benzyl bromide] | 29 °C |
| NCC(O)c1ccccc1 (configuration not stated) [2-Amino-1-phenylethanol] | 57 °C |
| O=[N+]([O-])c1cc(C(F)(F)F)cc([N+](=O)[O-])c1Cl [2-Chloro-1,3-dinitro-5-(trifluoromethyl)benzene] | 57 °C |
| O=C(CCl)c1ccccc1 [2-Chloro-1-phenylethanone] | 55 °C |
| CC(Cl)C(=O)O (configuration not stated) [2-Chloropropanoic acid] | -13 °C |
| NC(=O)CI [2-Iodoacetamide] | 94 °C |
| CCC(C)I (configuration not stated) [2-Iodobutane] | -104 °C |
| CC(C)C#N [2-Methylpropanenitrile] | -72 °C |
| CC(C)[N+](=O)[O-] [2-Nitropropane] | -93 °C |
| Nc1ccc(Cl)cc1C(=O)c1ccccc1 [2-amino-5-chlorobenzophenone] | 98 °C |
| Nc1ccc([N+](=O)[O-])cc1C(=O)c1ccccc1 [2-amino-5-nitrobenzophenone] | 167 °C |
| N#Cc1ccccc1N [2-aminobenzonitrile] | 48 °C |
| Nc1ccccc1-c1ccccc1 [2-aminobiphenyl] | 50 °C |
| O=c1[nH]c2ccccc2o1 [2-benzoxazolinone] | 140 °C |
| O=C(CBr)c1ccccc1 [2-bromoacetophenone] | 50 °C |
| CCC(C)Br (configuration not stated) [2-bromobutane] | -112 °C |
| CC(C)Br [2-bromopropane] | -89 °C |
| CCC(C)=O [2-butanone] | -87 °C |
| COc1ccc(CBr)c(Cl)c1 [2-chloro-4-methoxybenzyl bromide] | 57 °C |
| N#CCc1ccccc1Cl [2-chlorobenzyl_cyanide] | 24 °C |
| CCC(C)Cl (configuration not stated) [2-chlorobutane] | -131 °C |
| OCCCl [2-chloroethanol] | -63 °C |
